Structures can show the parent of a compound that is named as a salt. One block for each compound: values may come before it.
Columns and labels:
Format in all cases: physicochemical
[1] = Solubility of Compound I Form I in various solvents
[2] = Gravimetric vapor sorption (GVS) hygroscopicity; details: for Crystalline form by XRPD post GVS analysis: exposure to humidity 0 to about 90% RH, about 25° C.
Experimental: Sorption isotherms were obtained using a Hiden Isochema moisture sorption analyser (model IGAsorp), controlled by IGAsorp Systems Software v6.50.48. The sample was maintained at a constant temperature (25° C.) by the instrument controls. The humidity was controlled by mixing streams of dry and wet nitrogen, with a total flow of 250 mL·min^−1. The instrument was verified for relative humidity content by measuring three calibrated Rotronic salt solutions (10-50-88%). The weight change of the sample was monitored as a function of humidity by a microbalance (accuracy+/−0.005 mg). A defined amount of sample was placed in a tared mesh stainless steel basket under ambient conditions. A full experimental cycle consisted of two scans (sorption and desorption) at a constant temperature (25° C.) and 10% RH intervals over a 10-90% range (90 minutes for each humidity level).
The hygroscopicity of the esylate, mesylate, HCl, and sulfate salts/co-crystals of Compound I formed via the first scale up process was analyzed. All hygroscopicity experiments covered a wide range of humidity (0 to about 90% relative humidity) and were performed at about 25° C. to assess behavior.

[3] = Kinetic solubility in water; details: 37° C.; for pH of supernatant: water (native pH 7.6); for Final Form of residual solids (XRPD) / Kinetic solubility: water
Experimental: (§1) Kinetic solubility testing was conducted as follows: About 40-55 mg material was weighed into a 5-mL EP pipe. 4 mL of water/bio-relevant media (SGF, FaSSIF, or FeSSIF) was added into the corresponding sample pipe (drug loading: ˜10 mg/mL calculated as freebase). The pipes were capped tightly and the material was verified to be in contact with the media. The sample vials were placed on a roller and start rolling at 37° C. (rate: 25 r/min). Samples were taken at 1, 2, 4, 24 h. For each time point, 1.0 mL of suspension was transferred into a 2-mL centrifuge tube and the samples were centrifuged. The supernatant was filtered via 0.45 μm PTFE membrane and solubility and pH were measured. An XRPD test on residual solids was conducted.

[4] = Kinetic solubility in SGF; details: for Solubility (mg/mL) 1 h / Solubility (mg/mL) 2 h / Solubility (mg/mL) 4 h / Solubility (mg/mL) 24 h: SGF, 37° C.; for Solubility (mg/mL) 1 h: drug loading ~10 mg/mL as freebase; for pH 1 h / pH 2 h / pH 4 h / pH 24 h: supernatant, SGF (native pH 1.8)
Experimental: as §1

[5] = Kinetic solubility in FaSSIF; details: for Solubility (mg/mL) 1 h / Solubility (mg/mL) 2 h / Solubility (mg/mL) 4 h / Solubility (mg/mL) 24 h: FaSSIF, 37° C.; for Solubility (mg/mL) 1 h: drug loading ~10 mg/mL as freebase; for pH 1 h / pH 2 h / pH 4 h / pH 24 h: supernatant, FaSSIF (native pH 6.5)
Experimental: as §1

[6] = Kinetic solubility in FeSSIF; details: for Solubility (mg/mL) 1 h / Solubility (mg/mL) 2 h / Solubility (mg/mL) 4 h / Solubility (mg/mL) 24 h: 37° C.; for Solubility (mg/mL) 1 h: drug loading ~10 mg/mL as freebase; for Final Form: XRPD of residual solids, 24 h (merged cell); for Solubility (mg/mL) 1 h / Final Form / pH 1 h: 1 h; for Solubility (mg/mL) 2 h / Final Form / pH 2 h: 2 h; for Solubility (mg/mL) 4 h / Final Form / pH 4 h: 4 h; for pH 1 h / pH 2 h / pH 4 h / pH 24 h: supernatant
Experimental: as §1

[7] = 1 h, listed as Isethionate Type A
[8] = 2 h, listed as Isethionate Type A
[9] = 4 h, listed as Isethionate Type A
[10] = 24 h, listed as Isethionate Type A
[11] = 24 h, listed as Mesylate Type A

Solubility of Compound I Form I (Observations) ([1]; 25 mg/1 mL Acetone): <5 mg | Solubility of Compound I Form I (Observations) ([1]; 25 mg/1 mL Acetonitrile): <5 mg | Solubility of Compound I Form I (Observations) ([1]; 25 mg/1 mL DCM): about 10 mg | Solubility of Compound I Form I (Observations) ([1]; 25 mg/1 mL EtOAc): <5 mg | Solubility of Compound I Form I (Observations) ([1]; 25 mg/1 mL Heptane): <5 mg | Solubility of Compound I Form I (Observations) ([1]; 25 mg/1 mL IPA): <5 mg | Solubility of Compound I Form I (Observations) ([1]; 25 mg/1 mL MeOH): <5 mg | Solubility of Compound I Form I (Observations) ([1]; 25 mg/1 mL TBME): <5 mg | Solubility of Compound I Form I (Observations) ([1]; 25 mg/1 mL THF): <5 mg | Solubility of Compound I Form I (Observations) ([1]; 25 mg/1 mL Toluene): about 10 mg
SMILES: CCS(=O)(=O)N1CCN(c2ccc(Nc3ncc(C(N)=O)c(NC4CC4)n3)cc2)CC1 [Compound I Form I, 4-(cyclopropylamino)-2-(4-(4-(ethylsulfonyl)piperazin-1-yl)phenylamino)pyrimidine-5-carboxamide]

GVS hygroscopicity / moisture uptake ([2]; between 0 and about 60% RH, 25° C.): not subject to moisture uptake | GVS weight uptake ([2]; between about 60% to about 90% RH): RH; about 5 mg | GVS mass lost relative to the input weight ([2]; dried to about 10% RH): about 4.6% | Crystalline form by XRPD post GVS analysis [2]: loss of crystallinity | Deliquescence in GVS ([2]; large water uptake about 60 to about 90% RH): deliquescence did not result | GVS weight change (sudden increase in weight) ([2]; sorption above about 60% RH): ~35%
SMILES: CCS(=O)(=O)N1CCN(c2ccc(Nc3ncc(C(N)=O)c(NC4CC4)n3)cc2)CC1 [Compound I esylate Form I, 4-(cyclopropylamino)-2-(4-(4-(ethylsulfonyl)piperazin-1-yl)phenylamino)pyrimidine-5-carboxamide]

pH of supernatant [3, 7]: 2.1 | pH of supernatant [3, 8]: 2.0 | pH of supernatant [3, 9]: 2.1 | pH of supernatant [3, 10]: 2.1 | Final Form of residual solids (XRPD) ([3]; 1 h, 2 h, 4 h, 24 h, listed as Isethionate Type A): Freebase Form II | Kinetic solubility [3, 7]: 1500 µg/mL | Kinetic solubility [3, 8]: 1300 µg/mL | Kinetic solubility [3, 9]: 1300 µg/mL | Kinetic solubility [3, 10]: 1200 µg/mL | Solubility (mg/mL) 1 h ([4]; listed as Isethionate Type A): 0.077 mg/mL | Solubility (mg/mL) 2 h ([4]; listed as Isethionate Type A): 0.081 mg/mL | Solubility (mg/mL) 4 h ([4]; listed as Isethionate Type A): 0.073 mg/mL | Solubility (mg/mL) 24 h ([4]; listed as Isethionate Type A): 0.069 mg/mL | pH 1 h ([4]; listed as Isethionate Type A): 1.9 | pH 2 h ([4]; listed as Isethionate Type A): 1.9 | pH 4 h ([4]; listed as Isethionate Type A): 2.1 | pH 24 h ([4]; listed as Isethionate Type A): 2.0 | Solubility (mg/mL) 1 h ([5]; listed as Isethionate Type A): 0.020 mg/mL | Solubility (mg/mL) 2 h ([5]; listed as Isethionate Type A): 0.026 mg/mL | Solubility (mg/mL) 4 h ([5]; listed as Isethionate Type A): 0.018 mg/mL | Solubility (mg/mL) 24 h ([5]; listed as Isethionate Type A): 0.015 mg/mL | pH 1 h ([5]; listed as Isethionate Type A): 3.9 | pH 2 h ([5]; listed as Isethionate Type A): 3.9 | pH 4 h ([5]; listed as Isethionate Type A): 3.9 | pH 24 h ([5]; listed as Isethionate Type A): 3.9 | Solubility (mg/mL) 1 h ([6]; listed as Isethionate Type A): 0.0058 mg/mL | Solubility (mg/mL) 2 h ([6]; listed as Isethionate Type A): 0.0053 mg/mL | Solubility (mg/mL) 4 h ([6]; listed as Isethionate Type A): 0.0052 mg/mL | Solubility (mg/mL) 24 h ([6]; listed as Isethionate Type A): 0.0054 mg/mL | Final Form ([6]; listed as Isethionate Type A): Freebase Form II | pH 1 h ([6]; listed as Isethionate Type A): 4.6 | pH 2 h ([6]; listed as Isethionate Type A): 4.7 | pH 4 h ([6]; listed as Isethionate Type A): 4.7 | pH 24 h ([6]; listed as Isethionate Type A): 4.6
SMILES: CCS(=O)(=O)N1CCN(c2ccc(Nc3ncc(C(N)=O)c(NC4CC4)n3)cc2)CC1 [Compound I isethionate Type A, 4-(cyclopropylamino)-2-(4-(4-(ethylsulfonyl)piperazin-1-yl)phenylamino)pyrimidine-5-carboxamide]

GVS water absorbed ([2]; 25° C., first scale up material, listed as Comp. I Mesylate Form II): About 12 mg | GVS total mass lost ([2]; desorption): about 2% | Crystalline form by XRPD post GVS analysis [2]: does not result in a form change | GVS total weight uptake from the starting point ([2]; sorption, increasing RH): ≤ 1.4%
SMILES: CCS(=O)(=O)N1CCN(c2ccc(Nc3ncc(C(N)=O)c(NC4CC4)n3)cc2)CC1 [Compound I mesylate Form II, 4-(cyclopropylamino)-2-(4-(4-(ethylsulfonyl)piperazin-1-yl)phenylamino)pyrimidine-5-carboxamide]

pH of supernatant ([3]; 1 h, listed as Mesylate Type A): 1.9 | pH of supernatant ([3]; 2 h, listed as Mesylate Type A): 1.9 | pH of supernatant ([3]; 4 h, listed as Mesylate Type A): 2.2 | pH of supernatant [3, 11]: 2.0 | Final Form of residual solids (XRPD) ([3]; 1 h, 2 h, 4 h, 24 h, listed as Mesylate Type A): Freebase Form II | Kinetic solubility ([3]; 1 h, listed as Mesylate Type A): 1400 µg/mL | Kinetic solubility ([3]; 2 h, listed as Mesylate Type A): 1300 µg/mL | Kinetic solubility ([3]; 4 h, listed as Mesylate Type A): 1300 µg/mL | Kinetic solubility [3, 11]: 1300 µg/mL | Solubility (mg/mL) 1 h ([4]; listed as Mesylate Type A): 0.081 mg/mL | Solubility (mg/mL) 2 h ([4]; listed as Mesylate Type A): 0.096 mg/mL | Solubility (mg/mL) 4 h ([4]; listed as Mesylate Type A): 0.080 mg/mL | Solubility (mg/mL) 24 h ([4]; listed as Mesylate Type A): 0.076 mg/mL | pH 1 h ([4]; listed as Mesylate Type A): 1.9 | pH 2 h ([4]; listed as Mesylate Type A): 2.0 | pH 4 h ([4]; listed as Mesylate Type A): 2.0 | pH 24 h ([4]; listed as Mesylate Type A): 1.9 | Solubility (mg/mL) 1 h ([5]; listed as Mesylate Type A): 0.062 mg/mL | Solubility (mg/mL) 2 h ([5]; listed as Mesylate Type A): 0.055 mg/mL | Solubility (mg/mL) 4 h ([5]; listed as Mesylate Type A): 0.039 mg/mL | Solubility (mg/mL) 24 h ([5]; listed as Mesylate Type A): 0.020 mg/mL | pH 1 h ([5]; listed as Mesylate Type A): 4.1 | pH 2 h ([5]; listed as Mesylate Type A): 3.7 | pH 4 h ([5]; listed as Mesylate Type A): 3.6 | pH 24 h ([5]; listed as Mesylate Type A): 4.0 | Solubility (mg/mL) 1 h ([6]; listed as Mesylate Type A): 0.023 mg/mL | Solubility (mg/mL) 2 h ([6]; listed as Mesylate Type A): 0.020 mg/mL | Solubility (mg/mL) 4 h ([6]; listed as Mesylate Type A): 0.0084 mg/mL | Solubility (mg/mL) 24 h ([6]; listed as Mesylate Type A): 0.0083 mg/mL | Final Form ([6]; listed as Mesylate Type A): Freebase Form II | pH 1 h ([6]; listed as Mesylate Type A): 4.7 | pH 2 h ([6]; listed as Mesylate Type A): 4.5 | pH 4 h ([6]; listed as Mesylate Type A): 4.6 | pH 24 h ([6]; listed as Mesylate Type A): 4.6
SMILES: CCS(=O)(=O)N1CCN(c2ccc(Nc3ncc(C(N)=O)c(NC4CC4)n3)cc2)CC1 [Compound I mesylate Type A, 4-(cyclopropylamino)-2-(4-(4-(ethylsulfonyl)piperazin-1-yl)phenylamino)pyrimidine-5-carboxamide]
